The subject of data set [1] is HEK293-EV cells. The data set is described as follows: MTT cell viability assay, HEK293-EV. It counts as cell-based, human. Conditions: 48 h; for EC50: Homo sapiens, first-phase EC50 where biphasic. The procedure: (§1) Transfected-HEK293, MOLT-4, and L1210 cells were seeded into 24-well plates at a density of 1.1x10^5 cells per well in complete culture medium. […] Medium containing no cells was used to determine spontaneous MTT reduction (background). In transfected-HEK293 cells, media was removed via a vacuum-powered aspirator and replaced with 150 μL of Dulbecco’s phosphate buffered saline (DPBS—137 mM NaCl, 2.7 mM KCl, 6.3 mM Na2HPO4, 1.5 mM KH2PO4, 0.5 mM MgCl2, 0.9 mM CaCl2, pH 7.4) containing MTT (1 mg/mL) for 90 minutes at 37°C. In MOLT-4 and L1210, cell suspension was transferred to 1.5 mL microcentrifuge tubes and centrifuged for 10 minutes at 3000 rcf. Following centrifugation, media was removed via gentle pipetting and replaced with 150 μL of DPBS containing MTT (1 mg/mL) for 90 minutes at 37°C. Microcentrifuge tubes were centrifuged again for 15 minutes at 23,500 rcf, and then DPBS containing MTT was removed via a vacuum-powered aspirator. The resultant formazan crystals were solubilized in 500 μL of DMSO and transferred to a 96-well plate in 200 μL duplicates. Absorbance was measured at 570 nm, in a SpectraMax® i3x Multi-Mode Detection Platform (Molecular Devices, San Jose, CA). After background subtraction, % cell viability was calculated as the ratio of absorbance in the presence of test compound to that measured with vehicle alone (X 100).

The test system of data set [2] is HEK293-hSLC43A3 cells. Put plainly: MTT cell viability assay, HEK293-hSLC43A3. Type of data set: cell-based, human. As to conditions: for EC50: Homo sapiens, first-phase EC50 where biphasic. The procedure:
as §1
For orientation: Tetrazolium dyes change colour on reduction, which living cells bring about.

Data set [3] deals with HEK293-mslc43a3 cells. Put plainly: MTT cell viability assay, HEK293-mslc43a3. Conditions: for EC50: Homo sapiens, first-phase EC50 where biphasic. Type of data set: cell-based, human. The procedure:
as §1

The subject of data set [4] is ENBT1. Conditions: previous findings ref 14; cited from earlier work.
Substrate in data set [5]: Sc1ncnc2nc[nH]c12
Put plainly: cells, lysate or membranes. As to conditions: pH 7.4.

Substrate in data set [6]: Nc1ncnc2nc[nH]c12
Put plainly: Radiolabelled substrate uptake (oil-stop, 2 s) in HEK293-mslc43a3 cells. It counts as cell-based, mouse. Conditions: other: HEK293-mslc43a3 minus HEK293-EV, 2 seconds, room temperature, 10 μM dipyridamole; pH 7.4. The procedure:
(§2) Harvested cells were suspended in nominally sodium-free N-methyl-D-glucamine (NMG) buffer (140 mM NMG, 5 mM KCl, 4.2 mM KHCO3, 0.36 mM K2HPO4, 0.44 mM KH2PO4, 0.5 mM MgCl2, 1.3 mM CaCl2, 10 mM HEPES, pH 7.4), to minimize potential contribution of sodium-dependent concentrative nucleoside transporter-mediated uptake. Additionally, cells were incubated for 15 minutes at room temperature with 10 μM dipyridamole (DY), an equilibrative nucleoside transporter (ENT) inhibitor, to block equilibrative nucleoside transporter–mediated uptake. The substrate uptake assay was initiated by adding 250 μL cell suspension to 250 μL [^3H] labeled substrate, layered over 21:4 silicone:mineral oil (200 μL) in 1.5 mL microcentrifuge tubes (conducted at room temperature). The uptake reaction was terminated after 2 seconds by centrifugation of the cells through the oil layer at ~10,000 g. […] The resulting cell pellet was digested in 250 μL 1 M NaOH overnight (~16 hours), with 220 μL aliquots of digested cells assessed for radioactive content using standard liquid scintillation counting techniques in a Beckman Coulter LS6500 scintillation system (Brea, CA).
(§3) In transfected-HEK293 cell lines, total uptake was defined as uptake of radiolabeled substrate in cells overexpressing recombinant hENBT1 or mENBT1. […] ENBT1-mediated uptake was calculated as total uptake minus the non-mediated uptake. […]

Substrate in data set [7]: Nc1ncnc2nc[nH]c12
The data set is described as follows: Radiolabelled substrate uptake (oil-stop, 2 s) in HEK293-hSLC43A3 cells. Type of data set: cell-based, human. Conditions: other: HEK293-hSLC43A3 minus HEK293-EV, 2 seconds, room temperature, 10 μM dipyridamole; pH 7.4. Here is the method: as §2, §3

[8] abbreviates: other: HEK293-mslc43a3 minus HEK293-EV, 2 seconds, room temperature, 10 μM dipyridamole.
[9] abbreviates: other: HEK293-hSLC43A3 minus HEK293-EV, 2 seconds, room temperature, 10 μM dipyridamole.

Regarding `CSc1ncnc2nc[nH]c12` [6-MeMP, 6-Methylmercaptopurine], the EC50 (in general, the concentration that produces a half-maximal response) came out at 45 ± 7 µM in data set [1]; 79 ± 2 µM in data set [2] (HEK293-hSLC43A3, 48 h, MTT); 42 ± 6 µM in data set [3] (HEK293-mslc43a3, 48 h, MTT). For the same molecule, the “effect on 6-MP uptake by ENBT1” value in data set [4] is recorded as “inhibited”.

In the case of `Nc1nc2nc[nH]c2c(=S)[nH]1` [6-TG, 6-thioguanine], the EC50 turned out to be 16 ± 4.3 µM in data set [1]; 3.4 ± 0.9 µM in data set [2] (HEK293-hSLC43A3, 48 h, MTT); 3.4 ± 1.1 µM in data set [3] (HEK293-mslc43a3, 48 h, MTT). The “shift in EC50 (increased sensitivity) relative to HEK293-EV cells” value in data set [2] (HEK293-hSLC43A3 vs HEK293-EV) and in data set [3] (HEK293-mslc43a3 vs HEK293-EV) was 5 fold each time. Further, in data set [4], the “effect on 6-MP uptake by ENBT1” value is given as “competitively inhibits”.

As to `O=c1[nH]c(=S)c2[nH]c(=O)[nH]c2[nH]1` [6-TU, 6-Thiouric acid], the “effect on cell viability” value in data set [1] is listed as “minimal effect”; in data set [2] (HEK293-hSLC43A3, 48 h, MTT) it was “minimal effect”; in data set [3] (HEK293-mslc43a3, 48 h, MTT), “minimal effect”.

B1: mENBT1 (slc43a3-encoded mouse ENBT1) (Mus musculus) (protein)
chain: MASKGLPLYLATLLTGLLECIGFAGVLFGWTSLLFVFKAENYFSEPCEQDCLLQSNVTGPSDLKAQDEKFSLIFTLASFMNNFMTFPTGYIFDRFKTTVARLIAIFFYTCATIIIAFTSANTAMLLFLAMPMLAVGGILFLITNLQIGNLFGKHRSTIITLYNGAFDSSSAVFLVIKLLYEQGISLRSSFIFMSVCSVWHIARTFLLMPKGHIPYPLPPNYSYGLCSRFGASKKENKAAEHETKELRSKECLPPKEENSGPEQQQQQEQQQQQQQQQEQHEQHSFRRCALSRRFILHVVWLSIIQLWHYLFIGTLNSLLTKLSGGDKVEVSAYTNAFAITQFFGVLCAPWNGLLMDRLKQKYQKAAKRTGSSSEAVALCSMVPSLALTSLLSLGFALCASIPVMQLQYATFILQVVSRSFLYGCNAAFLTLAFPSEHFGKLFGLVMALSAIVSLLQFPLFKVSPESNAVYVSMGLAIFLTLVHPFLVYRECRAEKTKSSVDA
notes: Oligonucleotides corresponding to the coding region of SLC43A3 (NM_001278201) or slc43a3 (NM_021398); expressed in transfected cells; HEK293-mslc43a3
Take B1: in data set [5] (setting [8]), the Km (usually the concentration of substrate that gives half-maximal velocity) worked out at 253 ± 39 µM and the Vmax (commonly the rate approached at saturating substrate) turned out to be 144 ± 12 pmol/µL/s. In data set [6], the Michaelis constant (Km) worked out at 86 ± 22 µM and the Vmax came out at 62 ± 6 pmol/µL/s.

B2: endogenous ENBT1 expressed in L1210 cells (Mus musculus) (protein)
chain: B1 chain
For B2, in data set [5] (other: L1210, 2 seconds), the Km is 272 ± 91 µM.

B3: hENBT1 (SLC43A3-encoded human ENBT1) (Homo sapiens) (protein)
chain: MAGQGLPLHVATLLTGLLECLGFAGVLFGWPSLVFVFKNEDYFKDLCGPDAGPIGNATGQADCKAQDERFSLIFTLGSFMNNFMTFPTGYIFDRFKTTVARLIAIFFYTTATLIIAFTSAGSAVLLFLAMPMLTIGGILFLITNLQIGNLFGQHRSTIITLYNGAFDSSSAVFLIIKLLYEKGISLRASFIFISVCSTWHVARTFLLMPRGHIPYPLPPNYSYGLCPGNGTTKEEKETAEHENRELQSKEFLSAKEETPGAGQKQELRSFWSYAFSRRFAWHLVWLSVIQLWHYLFIGTLNSLLTNMAGGDMARVSTYTNAFAFTQFGVLCAPWNGLLMDRLKQKYQKEARKTGSSTLAVALCSTVPSLALTSLLCLGFALCASVPILPLQYLTFILQVISRSFLYGSNAAFLTLAFPSEHFGKLFGLVMALSAVVSLLQFPIFTLIKGSLQNDPFYVNVMFMLAILLTFFHPFLVYRECRTWKESPSAIA
notes: Oligonucleotides corresponding to the coding region of SLC43A3 (NM_001278201) or slc43a3 (NM_021398); expressed in transfected cells; HEK293-hSLC43A3
With B3, the Km in data set [5] (setting [9]) stood at 269 ± 67 µM; in data set [7], 93 ± 24 µM. Further, the Vmax in data set [5] (setting [9]) was 121 ± 16 pmol/µL/s; in data set [7], 56 ± 6 pmol/µL/s.

B4: endogenous ENBT1 expressed in MOLT-4 cells (Homo sapiens) (protein)
chain: B3 chain
On to B4, for which the Michaelis constant (Km) in data set [5] (other: MOLT-4, 2 seconds) came out at 115 ± 68 µM.

The values are drawn from publication PMC11449324, “Functional comparison of human and murine equilibrative nucleobase transporter 1” (PLOS ONE, 2024).
